Laboratory results as given in BigSolDB 2.1.

C[C@@H]1CC[C@H]2[C@@H](C)C(=O)O[C@@H]3O[C@@]4(C)CC[C@@H]1[C@]32OO4
solubility (mole fraction)
Conditions	283.15 K	288.15 K	293.15 K	298.15 K	303.15 K	308.15 K	313.15 K	318.15 K	323.15 K
in acetone	0.00388	0.0051	0.00673	0.00863	0.0114	0.0145	0.0181	0.0223	0.0278
in acetonitrile	0.000198	0.000257	0.000356	0.000518	0.000723	0.00103	0.00143	0.00196	0.0027
in chloroform	0.0487	0.0613	0.0795	0.101	0.127	0.157	0.193	0.236	0.287
in cyclohexane	0.00044	0.000585	0.000745	0.00106	0.00137	0.00171	0.00209	0.00265	0.00341
in ethyl acetate	0.00525	0.00786	0.0117	0.0153	0.0205	0.0282	0.0377	0.0499	0.0657
in methanol	0.000559	0.000773	0.00111	0.00145	0.00195	0.00267	0.00375	0.00477	0.00622
in toluene	0.0375	0.0435	0.052	0.0603	0.0711	0.0815	0.0937	0.107	0.122
